In ChEMBL document CHEMBL5365447, “Pronucleotides of 2',3'-Dideoxy-2',3'-Didehydrothymidine as Potent Anti-HIV Compounds” (J Med Chem, 2023):
Active and inactive are the calls of the source. No cut-off for these calls is given here.

Target: T1, DNA polymerase subunit gamma-1 (Homo sapiens) (UniProt P54098)
T1 sequence (whole entry): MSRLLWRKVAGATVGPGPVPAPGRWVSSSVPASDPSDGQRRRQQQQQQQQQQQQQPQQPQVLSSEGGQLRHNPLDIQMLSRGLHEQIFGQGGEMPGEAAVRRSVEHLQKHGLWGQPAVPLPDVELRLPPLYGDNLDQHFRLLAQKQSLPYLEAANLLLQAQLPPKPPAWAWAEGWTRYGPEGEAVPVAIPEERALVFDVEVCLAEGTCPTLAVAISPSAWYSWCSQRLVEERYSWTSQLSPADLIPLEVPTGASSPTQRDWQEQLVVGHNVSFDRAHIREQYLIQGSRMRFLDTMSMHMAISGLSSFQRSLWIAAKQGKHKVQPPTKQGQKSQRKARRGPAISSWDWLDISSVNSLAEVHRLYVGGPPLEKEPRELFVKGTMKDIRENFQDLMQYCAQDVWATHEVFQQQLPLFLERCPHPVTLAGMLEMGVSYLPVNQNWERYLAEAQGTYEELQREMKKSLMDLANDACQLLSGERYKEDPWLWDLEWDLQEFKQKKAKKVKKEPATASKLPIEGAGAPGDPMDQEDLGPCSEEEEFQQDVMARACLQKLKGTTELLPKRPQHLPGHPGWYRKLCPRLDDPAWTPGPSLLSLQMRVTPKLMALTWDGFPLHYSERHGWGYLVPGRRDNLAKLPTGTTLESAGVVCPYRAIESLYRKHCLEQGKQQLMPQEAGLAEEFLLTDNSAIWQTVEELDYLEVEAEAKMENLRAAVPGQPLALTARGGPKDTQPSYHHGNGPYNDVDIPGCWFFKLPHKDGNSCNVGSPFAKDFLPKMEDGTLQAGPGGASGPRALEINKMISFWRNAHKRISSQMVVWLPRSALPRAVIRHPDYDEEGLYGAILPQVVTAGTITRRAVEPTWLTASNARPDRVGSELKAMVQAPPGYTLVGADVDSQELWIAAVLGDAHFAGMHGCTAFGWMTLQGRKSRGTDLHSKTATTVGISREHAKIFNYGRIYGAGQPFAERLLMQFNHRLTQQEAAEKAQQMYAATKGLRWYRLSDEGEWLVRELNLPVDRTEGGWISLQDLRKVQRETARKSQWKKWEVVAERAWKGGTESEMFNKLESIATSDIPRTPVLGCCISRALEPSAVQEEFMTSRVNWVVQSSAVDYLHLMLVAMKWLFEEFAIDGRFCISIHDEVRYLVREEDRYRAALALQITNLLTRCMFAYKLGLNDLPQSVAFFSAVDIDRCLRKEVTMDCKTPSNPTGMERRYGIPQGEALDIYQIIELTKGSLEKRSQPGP
Assay: Substrate activity at human DNA polymerase gamma measured after 4 hrs by electrophoresis based primer extension assay

CCCCCCCCCCCCCCCCCCP(=O)(OC)OP(=O)(O)OP(=O)(O)OC[C@@H]1C=C[C@H](n2cc(C)c(=O)[nH]c2=O)O1.N.N (stereo partly specified)
Activity: inactive
